Entries after “also recorded” stand apart in the source; their conditions may differ. Like-named read-outs stand apart in the source and are kept apart here. Blank lines part the entries; values can stand above or below the compound they belong to.
Tests used:
Assay type in all cases: physicochemical
[1] = Solid form stability under stressed conditions (wet, dry, high humidity) by XRPD; conditions: for Dry_XRPD pattern: dry (45° C. under vacuum); for Humid_XRPD pattern: high humidity (RH >95%); for Wet_XRPD pattern: wet
Procedure: The solid form stability of each salt was studied by XRPD under stressed conditions: wet, dry (45° C. under vacuum) and high humidity (RH >95%).

[2] = Dynamic vapor sorption (DVS) with XRPD of the post-DVS sample; conditions: for solid form by XRPD after the DVS experiment: post DVS sample
Procedure: Samples were analyzed using an Aquadyne DVS-2 gravimetric water sorption analyzer. The relative humidity was adjusted between 2-95% and the weight of the sample was continuously monitored and recorded.
[…]: β-GPA maleate (1:1) Form II, β-GPA fumarate (1:1), β-GPA maleate (2:1), β-GPA succinate (2:1) and β-GPA oxalate (1:1) were analyzed by DVS experiment followed by XRPD analysis of the sample at the end of the experiment.
Sample 2162-64-1 was analyzed by DVS in triplicate and the post DVS samples were characterized by XRPD to identify the form at the end of the experiment.

[3] = Solid form stability of salts in different solvents (slurry, XRPD); conditions: 48 hours, room temperature
Procedure: Three salts were studied for solid form stability in water (disproportionation test), methanol, acetonitrile, and acetone:water (9:1) for 48 hours at room temperature.

[4] = Solid form stability at 40° C. and 75% humidity; conditions: 40° C. and 75% RH for seven days
Procedure: Solid form stability studies of β-GPA fumarate, succinate, and oxalate were carried out at 40° C. and 75% RH for seven days. Around 30 mg of the salts were placed in 4 mL vials which were placed in a saturated solution of sodium chloride (2 mL) with lids closed at 40° C. […]

Bulk and tapped density = assay: Bulk and tapped density
Procedure: The bulk density of β-GPA oxalate (Pattern 18 B), succinate (Pattern 15A), and fumarate (Pattern 7A) were determined by pouring in a known amount of salt (g) into a measuring cylinder. The volume (Vi) occupied by the salt was recorded and the bulk density (ρB) was determined using equation 1. ρB=g/Vi (1)
The tapped densities of the salts were determined using a Tap density analyzer. A known amount of salt was poured (g) into a measuring cylinder and the initial volume was recorded and tapped using a Tap density analyzer. The final volume (Vf) after tapping was recorded and the tapped density (ρT) was calculated by using equation 2. ρT=g/Vf (2)

[5] = Carr's index and Hausner ratio (predicted flowability)
Text: The flow properties of β-GPA are sub-optimal. The bulk density is 0.389 g/cc and the tapped density is 0.627 g/cc. These measurements can be used to calculate the Carr's index and Hausner ratio for a substance. The Carr's index and Hausner ratio are indicators of flowability of a powder. As known in the art, e.g., as described in Carr R. L. Chem. Eng. 1965, 72, 163-168, the relationship to flowability of a powder to the Carr's index and Hausner ratio is based on the scale shown in Table 6 below.
Carr's index or Carr's compressibility index (C) is an indication of the compressibility of a powder. It can be calculated using the equation below: Carr's index (C)=100(Vi−Vf)/Vi (3) A Carr's index greater than 25 is considered to be an indication of poor flowability while a value below 15 is an indication of good flowability.
The Hausner ratio is a number that is correlated to the flowability of a powder or granular material. It is calculated by using the equation below: Hausner ratio=Vi/Vf (4)

[6] = Flowability measurement using Hanson Flodex unit; conditions: for flow character from the experimental data: summary of density and Flodex measurements
Text: Method: A cylindrical vessel is secured to the stand and above that a funnel is also secured such that the bottom of the funnel is close to the vessel. A powder load of ≈50-60 g is then poured through the funnel into the middle of the cylinder. The lever device is pulled to open the hole in the disk quickly and without vibration. If a powder slowly flows through the small-diameter holes, leaving a cavity shaped like an upside-down, truncated cone, the test is considered positive. If a powder flocculates in bulk and falls abruptly, forming a cylindrical cavity, the test is considered negative. […] If the experiment is negative, the powder is tested again with a disk having a larger hole.

[7] = Carr's index and Hausner ratio (predicted flowability); conditions: Table 18, scale of Table 17
[8] = water (disproportionation test)
[9] = calculated from bulk and tapped volumes

- Dry_XRPD pattern [1]: Pattern 12A
- stability in dry conditions [1]: stable
- Humid_XRPD pattern [1]: Deliquesce
- stability under high humidity conditions [1]: deliquesced
- Wet_XRPD pattern [1]: Pattern 12A
Compound: N=C(N)NCCC(=O)O.O=C(O)C[C@H](O)C(=O)O [β-GPA malate (1:1)]

- Dry_XRPD pattern [1]: Pattern 4A
- stability in dry conditions [1]: stable
- Humid_XRPD pattern [1]: Deliquesce
- stability under high humidity conditions [1]: deliquesced
- Wet_XRPD pattern [1]: Pattern 4A
Compound: N=C(N)NCCC(=O)O.O=P(O)(O)O [β-GPA phosphate]

- solid form by XRPD after the DVS experiment [2]: retained their XRPD
- solid form by XRPD after the DVS experiment ([2]; listed as 1:1 oxalate salt): no form change
- solid form by XRPD after the DVS experiment ([2]; listed as 1:1 β-GPA oxalate): no form change
- Dry_XRPD pattern [1]: Pattern 18A
- stability in dry conditions [1]: stable
- Humid_XRPD pattern [1]: Pattern 18A
- stability under high humidity conditions [1]: stable
- Wet_XRPD pattern [1]: Pattern 18A
- XRPD pattern after slurry ([3]; acetone:water (9:1)): retain their XRPD pattern
- XRPD pattern after slurry ([3]; acetonitrile): retain their XRPD pattern
- XRPD pattern after slurry ([3]; methanol): retain their XRPD pattern
- XRPD pattern after slurry [3, 8]: retained their XRPD patterns
- XRPD pattern after slurry ([3]; water (disproportionation test), listed as 1:1 β-GPA oxalate): retained their XRPD pattern
- solid form stability (XRPD) ([4]; listed as 1:1 oxalate salt): stable
- Bulk density (Bulk and tapped density): 0.505 g/cc
- Tapped density (Bulk and tapped density): 0.623 g/cc
- Carr's index [5, 9]: 18.7
- Hausner ratio [5, 9]: 1.23
- Flow character ([5]; predicted, scale of Table 6 (Carr's index)): Fair (16-20)
- Did solid pass? ([6]; Disc pore size 12 mm): No
- Did solid pass? ([6]; Disc pore size 18 mm): No
- Did solid pass? ([6]; Disc pore size 24 mm): No
- Did solid pass? ([6]; Disc pore size 26 mm): Yes
- Did solid pass? ([6]; Disc pore size 28 mm): Yes
- Did solid pass? ([6]; Disc pore size 30 mm): Yes
- flow character from the experimental data [6]: fair
- Flow character [7]: Fair (16-20)
Compound: N=C(N)NCCC(=O)O.O=C(O)C(=O)O [β-GPA oxalate (1:1)]
- solid form stability (XRPD) [4]: retained their original XRPD pattern; also recorded: stable

- XRPD pattern after slurry [3, 8]: retained their XRPD patterns
- flow character from the experimental data [6]: excellent
Compound: N=C(N)NCCC(=O)O.O=C(O)/C=C/C(=O)O [β-GPA fumarate]
- solid form by XRPD after the DVS experiment [2]: retained their XRPD; also recorded: presence of two peaks from the β-GPA
- solid form stability (XRPD) [4]: retained their original XRPD pattern; also recorded: stable

- stability in dry conditions [1]: stable
- stability under high humidity conditions [1]: deliquesced
Compound: CCS(=O)(=O)O.N=C(N)NCCC(=O)O [ethanesulfonic acid salt]

- Dry_XRPD pattern [1]: Pattern 6C
- Humid_XRPD pattern [1]: Pattern 6B
- Wet_XRPD pattern [1]: Pattern 6B
Compound: N=C(N)NCCC(=O)O.N=C(N)NCCC(=O)O.O=C(O)/C=C\C(=O)O [β-GPA maleate (2:1)]

- Dry_XRPD pattern [1]: Pattern 6A
- stability in dry conditions [1]: stable
- Humid_XRPD pattern [1]: Pattern 6A
- stability under high humidity conditions [1]: stable
- Wet_XRPD pattern [1]: Pattern 6A
Compound: N=C(N)NCCC(=O)O.O=C(O)/C=C\C(=O)O [β-GPA maleate (1:1) Form I]

- Dry_XRPD pattern [1]: Pattern 19A
- stability in dry conditions [1]: stable
- Humid_XRPD pattern [1]: Deliquesce
- stability under high humidity conditions [1]: deliquesced
- Wet_XRPD pattern [1]: Pattern 19A
Compound: CS(=O)(=O)O.N=C(N)NCCC(=O)O [β-GPA methanesulfonate]

Compound: Cl.NC(N)=NCCC(=O)O [β-GPA hydrochloride]
- Dry_XRPD pattern [1]: Pattern 1A
- stability in dry conditions [1]: stable
- Humid_XRPD pattern [1]: Deliquesce
- stability under high humidity conditions [1]: deliquesced
- Wet_XRPD pattern [1]: Pattern 1A

- moisture uptake during the DVS experiment ([2]; listed as 1:1 β-GPA fumarate): < 1%
- solid form by XRPD after the DVS experiment ([2]; listed as 1:1 fumarate salt): no form change
- Dry_XRPD pattern [1]: Pattern 7A
- stability in dry conditions [1]: stable
- Humid_XRPD pattern [1]: Pattern 7A
- stability under high humidity conditions [1]: stable
- Wet_XRPD pattern [1]: Pattern 7A
- XRPD pattern after slurry ([3]; acetone:water (9:1)): retain their XRPD pattern
- XRPD pattern after slurry ([3]; acetonitrile): retain their XRPD pattern
- XRPD pattern after slurry ([3]; methanol): retain their XRPD pattern
- XRPD pattern after slurry ([3]; water (disproportionation test), listed as 1:1 β-GPA fumarate): retained their XRPD pattern
- solid form stability (XRPD) ([4]; listed as 1:1 fumarate salt): stable
Compound: N=C(N)NCCC(=O)O.O=C(O)/C=C/C(=O)O [β-GPA fumarate (1:1)]
- solid form by XRPD after the DVS experiment ([2]; listed as 1:1 β-GPA fumarate): presence of β-GPA peaks along with Pattern 7A

- moisture uptake during the DVS experiment [2]: ~25%
- moisture uptake ([2]; at around 95% RH): around 25%
- solid form by XRPD after the DVS experiment [2]: no form change
- Dry_XRPD pattern [1]: Pattern 6D
- Humid_XRPD pattern [1]: Pattern 6D
- Wet_XRPD pattern [1]: Pattern 6D
- XRPD pattern after slurry ([3]; acetonitrile): retain its XRPD pattern
- XRPD pattern after slurry ([3]; methanol): retain its XRPD pattern
- XRPD pattern after slurry [3, 8]: retained their XRPD patterns
Compound: N=C(N)NCCC(=O)O.O=C(O)/C=C\C(=O)O [β-GPA maleate (1:1) Form II]
- XRPD pattern after slurry ([3]; acetone:water (9:1)): matched with the original pattern of the salt (Pattern 6D) along with some additional peaks

— patent US9884813B1, “Pharmaceutically acceptable salts of B-guanidinopropionic acid with improved properties and uses thereof” (Rgenix, Inc., priority 2017, dated 2018)
